Among the data in patent US10562891B2, “Quinazolinones as PARP14 inhibitors” (Ribon Therapeutics Inc., priority 2017, dated 2020) are IC50 values, retold here.

As a reminder, the IC50 is the concentration that gives 50% inhibition.

catalytic domain of human PARP14, sequence (Q460N5 1611-1801): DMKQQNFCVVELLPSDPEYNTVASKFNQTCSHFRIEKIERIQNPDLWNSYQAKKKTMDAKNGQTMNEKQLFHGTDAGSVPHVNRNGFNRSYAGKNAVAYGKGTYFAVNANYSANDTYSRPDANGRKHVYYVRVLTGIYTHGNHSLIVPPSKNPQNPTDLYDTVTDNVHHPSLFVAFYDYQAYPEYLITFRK

This assay addresses catalytic domain of human PARP14 (Homo sapiens (Human), UniProt Q460N5). Put plainly: Enzymatic assay for inhibition of PARP14 (DELFIA, auto-modification with biotin-NAD). It counts as biochemical. As to conditions: auto-modification of PARP14 by biotin-NAD, 50 nM PARP14, 3 μM biotin-NAD. Summed up:
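His-TEV-tagged PARP14 catalytic domain (50 nM) preincubated with compound 30 min at 25 °C, then auto-modified with 3 μM biotin-NAD for 3 h at 25 °C in HEPES pH 8 buffer with DTT. IC50 from 4-parameter fit, rucaparib and DMSO as controls.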
`O=c1[nH]c(CSC2CCOCC2)nc2cc(CCC3CCCCC3)cc(F)c12` [Example 368] came in with an IC50 of 1000 to 10000 nM.
The figure for `CC(=O)N1CCC(CNc2cc3nc(CSC4CCOCC4)[nH]c(=O)c3c(F)c2F)CC1` [Example 369] is less than 1000 nM.
On to `O=c1[nH]c(CSC2CCOCC2)nc2cc(SCC3CCOCC3)cc(F)c12` [Example 370], for which the IC50 is less than 1000 nM.
As to `C[C@]1(O)CC[C@H](SCc2nc3cc(OCC4CCOC4)cc(F)c3c(=O)[nH]2)CC1` (stereo partly drawn) [Example 373], the IC50 was less than 1000 nM.
With `CO[C@H]1C[C@@H](Nc2cc3nc(CS[C@H]4CC[C@](C)(O)CC4)[nH]c(=O)c3c(F)c2F)C1` [Example 374] the figure was less than 1000 nM.
The figure for `O=c1[nH]c(CS[C@H]2CC[C@H](OC(F)(F)F)CC2)nc2cc(OCC3CCOCC3)cc(F)c12` [Example 375] is less than 1000 nM; for `O=c1[nH]c(CSC2CCOCC2)nc2cc(OCC3CCOC3)cc(Br)c12` (stereo not drawn) [Example 376] it is less than 1000 nM; for `CO[C@H]1CC[C@H](Nc2cc3nc(CS[C@H]4CC[C@H](O)CC4)[nH]c(=O)c3c(F)c2F)CC1` [Example 377] it is less than 1000 nM.
The figure for `CCC(=O)N[C@H]1CC[C@H](SCc2nc3cc(OCC4CC4)cc(F)c3c(=O)[nH]2)CC1` [Example 378] is less than 1000 nM; for `CO[C@H]1CC[C@@H](Nc2cc3nc(CS[C@H]4CC[C@H](O)CC4)[nH]c(=O)c3c(F)c2F)CC1` [Example 379] it is less than 1000 nM.
With `CC(=O)NC1(C)CCC(SCc2nc3cc(OCC4CC4)cc(F)c3c(=O)[nH]2)CC1` (stereo not drawn) [Example 380], the IC50 is less than 1000 nM.
The figure for `O=c1[nH]c(CS[C@H]2CC[C@H](O)CC2)nc2cc(N[C@@H]3CCCOC3)c(F)c(F)c12` [Example 381] is less than 1000 nM.
For the compound `O=c1[nH]c(CS[C@H]2C[C@H](O)C2)nc2cc(OCC3CCOCC3)cc(F)c12` [Example 382], the IC50 was less than 1000 nM.
In turn, `N#Cc1cc(OCC2CCOC2)cc2nc(CSC3CCOCC3)[nH]c(=O)c12` (stereo not drawn) [Example 383] registered an IC50 of less than 1000 nM.
Compound `CC(C)(C)CNc1cc2nc(CSC3CCOCC3)[nH]c(=O)c2c(F)c1F` [Example 384] came in with a half-maximal inhibitory concentration (IC50) of less than 1000 nM.
Turning to `C[C@]1(O)C[C@H](COc2cc(F)c3c(=O)[nH]c(CSC4CCOCC4)nc3c2)C1` [Example 385], the IC50 is less than 1000 nM.
The figure for `C[C@]1(O)C[C@@H](COc2cc(F)c3c(=O)[nH]c(CSC4CCOCC4)nc3c2)C1` [Example 386] is less than 1000 nM; for `CC(=O)N[C@H]1C[C@@H](SCc2nc3cc(OCC4CCOCC4)cc(F)c3c(=O)[nH]2)C1` [Example 387] it is less than 1000 nM; for `CO[C@H]1C[C@@H](Nc2cc3nc(CS[C@H]4CC[C@H](NC(C)=O)CC4)[nH]c(=O)c3c(F)c2F)C1` [Example 389] it is less than 1000 nM.
Turning to `O=C(C1CC1)N1CCC(COc2cc(F)c3c(=O)[nH]c(CSC4CCOCC4)nc3c2)CC1` [Example 390], the IC50 was less than 1000 nM.
With `CC(=O)N[C@H]1CC[C@H](SCc2nc3cc(OCC4CCOC4)cc(F)c3c(=O)[nH]2)CC1` (stereo partly drawn) [Example 391], the IC50 is less than 1000 nM.
On to `CC(=O)N[C@H]1CC[C@H](SCc2nc3cc(NC4CCC4)c(F)c(F)c3c(=O)[nH]2)CC1` [Example 392], for which the IC50 was less than 1000 nM.
For `CC(=O)N[C@H]1C[C@H](SCc2nc3cc(OCC4CCOCC4)cc(F)c3c(=O)[nH]2)C1` [Example 393], the IC50 was less than 1000 nM.
With `CC(Oc1cc(F)c2c(=O)[nH]c(CSC3CCOCC3)nc2c1)C1CCCC1` (stereo not drawn) [Example 394], the IC50 was less than 1000 nM.
The figure for `O=C(N[C@H]1CC[C@H](SCc2nc3cc(OCC4CC4)cc(F)c3c(=O)[nH]2)CC1)C1CC1` [Example 395] is less than 1000 nM; for `CC(=O)N1CCC(COc2cc(F)c3c(=O)[nH]c(CS[C@H]4CC[C@H](O)CC4)nc3c2)CC1` [Example 396] it is less than 1000 nM.
Take `CC(C)C(=O)N1CCC(COc2cc(F)c3c(=O)[nH]c(CSC4CCOCC4)nc3c2)CC1` [Example 397]: the IC50 is less than 1000 nM.
In turn, `CCC(=O)N1CCC(COc2cc(F)c3c(=O)[nH]c(CSC4CCOCC4)nc3c2)CC1` [Example 398] had an IC50 of less than 1000 nM.
On to `O=c1[nH]c(CSC2CCOCC2)nc2cc(OCC3CCNCC3)cc(F)c12` [Example 399], for which the IC50 was less than 1000 nM.
`CC(Nc1cc2nc(CSC3CCOCC3)[nH]c(=O)c2c(F)c1F)C1CCOCC1` (stereo not drawn) [Example 400] returned an IC50 greater than 10000 nM.
Compound `CC(=O)N1CCCC(COc2cc(F)c3c(=O)[nH]c(CSC4CCOCC4)nc3c2)C1` (stereo not drawn) [Example 401] showed an IC50 of less than 1000 nM.
With `O=c1[nH]c(CSC2CCOCC2)nc2cc(N[C@H]3C[C@@H](OC(F)(F)F)C3)c(F)c(F)c12` [Example 402], the IC50 is less than 1000 nM.
With `Nc1cc2nc(CSC3CCOCC3)[nH]c(=O)c2c(F)c1F` [Example 403] the figure was greater than 10000 nM; with `CN(C)[C@H]1CC[C@H](SCc2nc3cc(OCC4CC4)cc(F)c3c(=O)[nH]2)CC1` [Example 404], less than 1000 nM.
As for `O=c1[nH]c(CS[C@H]2C[C@@H](O)C2)nc2cc(OCC3CCOCC3)cc(F)c12` [Example 405], the IC50 was less than 1000 nM.
In the case of `O=c1[nH]c(CSC2CCOCC2)nc2cc(OCC3CCOCC3)c(F)c(F)c12` [Example 406], the IC50 was less than 1000 nM.
`COC(C)(C)CNc1cc2nc(CSC3CCOCC3)[nH]c(=O)c2c(F)c1F` [Example 407]: the IC50 fell in the range of 1000 to 10000 nM.
The compound `CC(=O)N1CCC(COc2cc(F)c3c(=O)[nH]c(CS[C@H]4CC[C@](C)(O)CC4)nc3c2)CC1` [Example 409] gave an IC50 of less than 1000 nM.
With `COC(=O)N1CCC(COc2cc(F)c3c(=O)[nH]c(CSC4CCOCC4)nc3c2)CC1` [Example 410], the IC50 was less than 1000 nM.
The compound `C[C@]1(O)CC[C@@H](SCc2nc3cc(OCC4CCOCC4)cc(F)c3c(=O)[nH]2)CC1` [Example 411] gave an IC50 of less than 1000 nM.
The compound `CN1CCOC(COc2cc(F)c3c(=O)[nH]c(CSC4CCOCC4)nc3c2)C1` (stereo not drawn) [Example 414] yielded an IC50 of less than 1000 nM.
The compound `CN1CCC(COc2cc(F)c3c(=O)[nH]c(CSC4CCOCC4)nc3c2)CC1` [Example 415] showed an IC50 of less than 1000 nM.
For `CC(C)(C)COc1cc(F)c2c(=O)[nH]c(CSC3CCOCC3)nc2c1` [Example 416], the IC50 was less than 1000 nM.
Compound `CC(=O)N1CCC(COc2cc(F)c3c(=O)[nH]c(CS[C@H]4CC[C@@](C)(O)CC4)nc3c2)CC1` [Example 417] returned an IC50 of less than 1000 nM.
On to `O=c1[nH]c(CS[C@H]2CC[C@@H](OC(F)(F)F)CC2)nc2cc(OCC3CCOCC3)cc(F)c12` [Example 418], for which the IC50 was less than 1000 nM.
`CC(=O)N1CCC(CNc2cc3nc(CS[C@H]4CC[C@H](O)CC4)[nH]c(=O)c3c(F)c2F)CC1` [Example 419] gave an IC50 of less than 1000 nM.
Regarding `CNc1cc2nc(CSC3CCOCC3)[nH]c(=O)c2c(F)c1F` [Example 420], the IC50 is less than 1000 nM.
With `CC(C)(COc1cc(F)c2c(=O)[nH]c(CSC3CCOCC3)nc2c1)C(F)(F)F` [Example 421] the figure was less than 1000 nM.
Regarding `CC(=O)N1CCC(COc2cc(F)c3c(=O)[nH]c(CS[C@H]4CC[C@@H](O)CC4)nc3c2)CC1` [Example 422], the IC50 is less than 1000 nM.
The compound `CC(=O)N1CCC(COc2cc(Cl)c3c(=O)[nH]c(CSC4CCOCC4)nc3c2)CC1` [Example 423] showed an IC50 of less than 1000 nM.
The figure for `COCC(=O)N1CCC(COc2cc(F)c3c(=O)[nH]c(CSC4CCOCC4)nc3c2)CC1` [Example 424] is less than 1000 nM; for `CN1CC[C@H](CNc2cc3nc(CSC4CCOCC4)[nH]c(=O)c3c(F)c2F)[C@@H](F)C1` [Example 425] it is less than 1000 nM; for `CC(=O)N[C@H]1CC[C@H](SCc2nc3cc(OCC4CCOCC4)cc(F)c3c(=O)[nH]2)CC1` [Example 426] it is less than 1000 nM.
On to `CN1CCC(COc2cc(F)c3c(=O)[nH]c(CSC4CCOCC4)nc3c2)C(F)(F)C1` (stereo not drawn) [Example 427], for which the IC50 was less than 1000 nM.
